Measured values published in paper PMC6895180 (Nature Communications, 2019).
Where “and” joins values, the source holds several entries; their conditions need not be identical. Equal entries are not always repeated. Where two headings read alike, the source gives them in different places.

Legend:
[1] = system: RNAi clones targeting adenosine kinase (ADKIN; Tb927.6.2300) in T. brucei NY-SM cells; test: Susceptibility of ADKIN RNAi clones (tetracycline-induced / non-induced); format: cell-based, Trypanosoma brucei brucei; conditions: for IC50: single determinations
Protocol: Susceptibility assays with NY-SM[51], BS221[48] and TbAT1-KO[48] (derived from BS221) cells were performed using 10 concentrations of a 4-fold compound dilution series starting at 64 µM. Parasites were seeded at 4 × 10^3 parasites per well and exposed to drug compound for 72 h, after which resazurin (final concentration of 10 µg mL^−1) was added to the plates. Fluorescence intensities were determined after 6 h.
The RNAi library[54] was induced for 68 h by the addition of 1 µg mL^−1 of tetracycline. After induction, the cells were exposed to different concentrations of 9 (corresponding to the IC98, IC99). Cells were maintained until a recovery of the resistant population was observed. Genomic DNA of the resistant parasite population was isolated, and the RNAi inserts were identified by PCR amplification, followed by cloning in highly competent Escherichia coli and sequencing. To validate the involvement of the identified genes, the RNAi inserts were back-cloned into a p2T7Bern vector[54] and transformed into NY-SM cells (the background strain of the RNAi library). The transformed NY-SM cells were cloned by limiting dilution. Two clones of each RNAi insert were exposed to tetracycline to induce the RNAi phenotype and subsequently subjected to different concentrations of 9 to determine the susceptibility of induced versus non-induced clones.
Drug susceptibility assays with induced clones were performed as described above for NY-SM cells, with an initial induction period of 68 h with 1 µg mL^−1 tetracycline prior to the start of the drug susceptibility assay.

[2] = system: T. b. brucei AnTAR1.1 PPYRE9; test: Mouse model of stage 2 HAT (BLI, parasitaemia, SL-RNA qPCR); format: in vivo
Protocol: […] Treatment was initiated at 21 dpi. […] Mice were injected i.p. with […] of D-luciferin and anaesthetised using isoflurane. The luminescent signal was acquired from both the dorsal and ventral side of the animals. […] Animals subjected to the different treatment schemes (from 4 wpi) were additionally imaged over a 5 min exposure time for enhanced sensitivity. […] Tissues were weighed and RNA was extracted using the RNeasy Plus Mini Kit (Qiagen) according to the manufacturer’s recommendations. […] A list of primers used is provided in the Supplementary Methods section of the Supplementary Information. BLI images from the IVIS Spectrum In Vivo Imaging System (Perkin Elmer) were analysed using LivingImage v4.3.1. SoftWoRx suite 2.0 for microscopy (image deconvolution), then processing using the Fiji software.

Nc1ncnc2c1ccn2[C@@H]1O[C@H](CO)C[C@H]1O [Compound 9, 3’-deoxytubercidin]
fold reduced susceptibility in ADKIN knockdown cell lines [1]: ~ 20 fold
Inhibition (%) ([1]; ADKIN A +, 0.000976563 µM): 2.55%
Inhibition (%) ([1]; ADKIN A +, 0.00390625 µM): 2.6%
Inhibition (%) ([1]; ADKIN A +, 0.0625 µM): 42% and 36% and 30%
Inhibition (%) ([1]; ADKIN A +, 0.25 µM): 91% and 95%
Inhibition (%) ([1]; ADKIN B +, 0.25 µM): 93% and 91% and 98%
inhibition at 0.0625 µM ([1]; Trypanosoma brucei, ADKIN A +, 0.0625 µM): 33%
inhibition at 0.25 µM ([1]; Trypanosoma brucei, ADKIN A +, 0.25 µM): 94%
inhibition at 1 µM ([1]; Trypanosoma brucei, ADKIN A +): 99%
inhibition at 4 µM ([1]; Trypanosoma brucei, ADKIN A +): 99%
inhibition at 16 µM ([1]; Trypanosoma brucei, ADKIN A +): 100%
inhibition at 64 µM ([1]; Trypanosoma brucei, ADKIN A +): 99%
inhibition at 0.000244141 µM ([1]; Trypanosoma brucei, ADKIN B +, 0.000244141 µM): 0%
inhibition at 0.000976563 µM ([1]; Trypanosoma brucei, ADKIN B +, 0.000976563 µM): 0%
inhibition at 0.00390625 µM ([1]; Trypanosoma brucei, ADKIN B +, 0.00390625 µM): 0%
inhibition at 0.015625 µM ([1]; Trypanosoma brucei, ADKIN B +, 0.015625 µM): 0%
inhibition at 0.25 µM ([1]; Trypanosoma brucei, ADKIN B +, 0.25 µM): 96%
inhibition at 1 µM ([1]; Trypanosoma brucei, ADKIN B +): 99%
inhibition at 4 µM ([1]; Trypanosoma brucei, ADKIN B +): 99%
inhibition at 16 µM ([1]; Trypanosoma brucei, ADKIN B +): 100%
inhibition at 64 µM ([1]; Trypanosoma brucei, ADKIN B +): 100%
EC50 ([1]; Trypanosoma brucei, read-out: EC50, ADKIN RNAi clones before knockdown): 7.7 ± 0.17 nM
EC50 ([1]; Trypanosoma brucei, read-out: EC50 upon ADKIN knockdown): 100 ± 5 nM
IC50 ([1]; Trypanosoma brucei, read-out: IC50, ADKIN A +, clone A, tetracycline-induced): 101 nM
IC50 ([1]; Trypanosoma brucei, read-out: IC50, ADKIN A -, clone A, non-induced): 6.9 nM
IC50 ([1]; Trypanosoma brucei, read-out: IC50, ADKIN B +, clone B, tetracycline-induced): 98.5 nM
IC50 ([1]; read-out: IC50, ADKIN A +, clone A, tetracycline-induced): 117 nM and 123 nM and 92 nM and 78.4 nM and 88.9 nM and 95.7 nM and 111 nM
IC50 ([1]; read-out: IC50, ADKIN A -, clone A, non-induced): 7.7 nM and 7.2 nM and 8.1 nM and 7.9 nM and 8.3 nM and 7.8 nM and 7.4 nM
IC50 ([1]; read-out: IC50, ADKIN B +, clone B, tetracycline-induced): 110 nM and 121 nM and 120 nM (2×) and 109 nM and 132 nM and 127 nM
RLU data, individual mice ([2]; 6.25 mg/kg SID, 3 wpi): 1622000 RLU and 3182000 RLU and 2182000 RLU
RLU data, individual mice ([2]; 6.25 mg/kg SID, 4 wpi): 193100 RLU and 167700 RLU and 117800 RLU
RLU data, individual mice ([2]; 6.25 mg/kg SID, 5 wpi): 198100 RLU and 192400 RLU and 180700 RLU
RLU data, individual mice ([2]; 6.25 mg/kg SID, 6 wpi): 97950 RLU and 93770 RLU and 90330 RLU
RLU data, individual mice ([2]; 6.25 mg/kg SID, 7 wpi): 113500 RLU and 105600 RLU and 105900 RLU
RLU data, individual mice ([2]; 6.25 mg/kg SID, 8 wpi): 131900 RLU and 113000 RLU and 102800 RLU
RLU data, individual mice ([2]; 6.25 mg/kg SID, 9 wpi): 108500 RLU and 102400 RLU and 89250 RLU
RLU data, individual mice ([2]; 6.25 mg/kg SID, 11 wpi): 85510 RLU and 79310 RLU and 77130 RLU
RLU data, individual mice ([2]; 6.25 mg/kg SID, 12 wpi): 86540 RLU and 80590 RLU and 72940 RLU
RLU data, individual mice ([2]; 6.25 mg/kg SID, 14 wpi): 72880 RLU and 70430 RLU and 75490 RLU
RLU data, individual mice ([2]; 12.5 mg/kg SID, 3 wpi): 11680000 RLU and 7405000 RLU
RLU data, individual mice ([2]; 12.5 mg/kg SID, 4 wpi): 129800 RLU and 121500 RLU
RLU data, individual mice ([2]; 12.5 mg/kg SID, 5 wpi): 117000 RLU and 123200 RLU
RLU data, individual mice ([2]; 12.5 mg/kg SID, 6 wpi): 100200 RLU and 88860 RLU
RLU data, individual mice ([2]; 12.5 mg/kg SID, 7 wpi): 107000 RLU and 110100 RLU
RLU data, individual mice ([2]; 12.5 mg/kg SID, 8 wpi): 112000 RLU and 128000 RLU
RLU data, individual mice ([2]; 12.5 mg/kg SID, 9 wpi): 99900 RLU and 94080 RLU
RLU data, individual mice ([2]; 12.5 mg/kg SID, 11 wpi): 77540 RLU and 81340 RLU
RLU data, individual mice ([2]; 12.5 mg/kg SID, 12 wpi): 79330 RLU and 83380 RLU
RLU data, individual mice ([2]; 12.5 mg/kg SID, 14 wpi): 72090 RLU and 77840 RLU
RLU data, individual mice ([2]; 25 mg/kg BID, 3 wpi): 4672000 RLU and 30200000 RLU
